Patent US20220409578A1, “FUNCTIONALIZED 1,3-BENZENE DIOLS AND THEIR METHOD OF USE FOR THE TREATMENT OF RADIATION DERMATITIS AND OTHER SKIN DISORDERS” (KANNALIFE SCIENCES, INC., priority 2019, published 2022)

Assays:
IL-6 = IL-6 release, UV-A-induced photoaging in human dermal fibroblasts (ELISA); format: cell-based; conditions: UV-A 12.5 J/cm^2 (315-400 nm)
Description: Primary dermal fibroblasts cells of human origin were cultured in vitro using standard conditions (37° C., 95% v/v air, 5% v/v CO2). Primary dermal fibroblasts from neonatal donor were used from human origin and purchased from Thermo-Fisher (Cat No. C0045C). […] Cells were cultured until the second passage and then acclimated for 48 hours before UVA irradiation and dosing procedures conducted in 24-well plates. On Day 3, test materials were dosed to cell culture media and pre-incubated for 6 hours. Treatment media was then removed and replaced with phosphate buffer saline (PBS) without test materials and Ultraviolet-A (UV-A) was irradiated at 12.5 J/cm^2 using FS-20/T-12 bulbs (315-400 nm). […]
An Interleukin-6 assay was used to evaluate the anti-inflammatory activity of KLS-13022 formulated in ethanol and applied in vitro to cells irradiated with Ultraviolet-A (UV-A)-induced photoaging (Wlascheck et al., 1994) in human dermal fibroblasts (HDFs). […] IL-6 levels were quantified by enzyme-linked immunosorbent assay (ELISA) after inflammatory induction and incubation with test and control materials. Interleukin-6 (IL-6) levels were assessed from cell culture media supernatants using BD Biosciences OptEIA™ Human IL-6 ELISA Set kit (Cat. No. 555220). according to the manufacture's specifications. […]

IL-8 = IL-8 release, nickel-induced allergy in human dermal microvascular endothelial cells (ELISA); format: cell-based; conditions: co-treatment with NiSO4, HDMECs
Description: Dermal Microvascular endothelial cells of human origin were cultured in vitro using standard conditions (37° C., 95% v/v air, 5% v/v CO2). Human cells were selected as relevant to cell types within skin tissues for this development program. Cell culture methods are commonly used in non-clinical studies conducted on pharmaceutical products. […] Cells were cultured until the third and fourth passage and then acclimated for 24 hours before Nickel induction and dosing procedures. Cell treatment groups were identified using appropriate 96-well plates. The test and control articles were administered to medium containing 1 mM NiSO4 in triplicates. The negative control group received vehicle-only (0.1% v/v final) dose. A fixed 0.1 μL/well from 1000× stock dose volume was administered to 100 μL of media to each cell culture well on Day 2 and incubated for 6 hours at 37 degrees. These cell cultures were also utilized to determine the concentrations of test agent that were non-toxic after 24 hours of incubation.
Assay for Interleukin-8: Test material was applied in vitro for the ability to inhibit pro-inflammatory (IL-8) cytokine secretion by cultured HDMECs co-treated with Nickel (NiSO4). Clobetasol propionate was tested as positive control material for anti-inflammatory activity. The pro-inflammatory cytokine (IL-8) was quantified by enzyme-linked immunosorbent assay (ELISA) after inflammatory induction and incubation with test and control materials. Interleukin-8 levels in cell culture medium are markers of inflammation signaling by endothelial cells present in skin microvascular tissue in response to irritation. Interleukin-8 (IL-8) levels were assessed using BD Biosciences OptEIA™ Human IL-8 ELISA Set kit (Cat. No. 555244) and Reagent Set B (Cat. No. 550534) according to the manufacture's specifications. Absorbance was measured at 450 nm using plate reader and interleukin-8 levels were calculated from a standard curve.

[1] = format: in vitro ADME, porcine
Description: Percutaneous absorption (Franz cell). For these studies, porcine ear skin (n=3; 1.5 in^2) obtained from Animal Technologies, Inc. (Tyler, T X) were utilized, Skins were thawed for 30 min at room temperature. After thawing, skin was placed over receptor compartment of the unjacketed Franz cell chamber with stir bar obtained from Permegear and covered with the donor compartment. The clamp was then placed to hold the cell together. The receptor compartment was filled with 12 mL of 1M PBS buffer+4% BSA and 0.1% sodium azide through the sampling port using a syringe. Franz cell was placed on a stir plate at ˜600 RPM and heated till the buffer reached 37° C. 400 μL of 3H—H2O (˜1.5 million counts) was then placed on the membrane for 5 min. […] After 30 min, 250 μL of the receptor buffer was removed in triplicate and counted to check the integrity of the skin (>0.4 μl/cm^2 was considered acceptable). […] Extraction and homogenization were performed to quantify the amount of formulation remaining in the epidermis and dermis. […] The concentration of KLS-13022 was measured by liquid chromatography coupled with tandem mass spectrometry (LC/MS/MS). […] The analytes and internal standard were detected using an Applied Biosystem API-3000 mass spectrometer equipped with a Turbo-Ion Spray (Electrospray, ESI) source that was operated in multiple reaction monitoring mode (MRM) under positive ion mode.

C=C(C)[C@@H]1CCC(C)=C[C@H]1c1c(O)cc(CC2CN(C(=O)OCC)C2)cc1O [KLS-13022, ethyl 3-(3,5-dihydroxy-4-((1R,6R)-3-methyl-6-(prop-1-en-2-yl)cyclohex-2-enyl)benzyl)azetidine-1-carboxylate]
IC50 (IL-6; Fibroblast, light or radiation study, read-out: IC50 of IL-6 inhibition): 900 nM
maximum IL-6 inhibition (IL-6): 95%
IC50 (IL-8; Homo sapiens, Endothelial cell, read-out: IC50 of IL-8 inhibition): 300 nM
maximum IL-8 inhibition (IL-8): 78%
penetration into receptor solution [1]: not into the receptor solution
amount in epidermis/dermis (viable skin) ([1]; pig, 24 h, 1 % w/v): 0.324%
